Source: patent publication US9782379B2, “Use of protectin DX for the stimulation of muscular IL-6 secretion” (Universite Laval, priority 2013, dated 2017)

Legend:
T37i brown adipocytes = assay: IL-6 release from cultured brown adipocytes; type: cell-based; conditions: norepinephrine 1 μM as adrenergic stimulus
Text: Since brown adipose tissue was recently shown to regulate glucose homeostasis via secretion of IL-6^20 we also examined whether PDX might raise circulating IL-6 by stimulating brown fat.

C2C12 myotubes = assay: IL-6 expression and release and AMPK phosphorylation in cultured C2C12 myotubes; type: cell-based; conditions: 100 nM of each lipid mediator vs vehicle
Experimental: C2C12 myoblasts were maintained in DMEM containing 10% FBS. Differentiation to myotubes was initiated by addition of DMEM containing 2% horse serum. The experiment was conducted 5 days after the addition of the differentiation media. Immediately prior to the commencement of experiments fresh media was added to the cells. Then vehicle or PDX (10, 100, and 1000 nM) was added to the appropriate wells. 30 and 120 minutes after the addition of PDX media was collected and frozen for IL-6 quantification and cells were washed in ice cold PBS. For extraction of mRNA cells were then lysed and scraped in 300 μl of RLT buffer (QIAGEN). For examination of AMPK activity cells were lysed and scraped in 200 μl of ice cold lysis buffer containing 50 mM HEPES pH7.5, 150 mM NaCl, 1 mM EGTA, 20 mM b-glycerophosphate, 1% NP40, 10 mM NaF, 2 mM Na3VO4, 1× protease inhibitor cocktail (Sigma).
Snap frozen gastrocnemius muscle and liver from mice were pulverized in liquid nitrogen then lysed overnight at 4° C. in the lysis buffer described for the C2C12 myotube experiments. Immunoblotting of myotube, macrophage, liver and muscle lysates was then performed as previously described^5. Briefly, 50 ug of protein was loaded onto a 7.5% acrylamide gel, subjected to SDS-PAGE then transferred onto nitrocellulose membranes. Membranes were then blocked and probed with the appropriate antibodies. Antibodies for p-Akt ser473, p-JNK thr183/tyr185, JNK, p-AMPK thr172, AMPK, p-STAT-3 ser727 and STAT-3 were obtained from Cell Signaling Technology (MA, USA). Antibodies for total Akt and iNOS were from Santa Cruz Biotechnology (CA, USA) and BD Transduction Laboratories™ (Canada) respectively.
RNA was extracted from C2C12 myotubes using an RNeasy® mini kit from QIAGEN. RNA from homogenized liver tissue was extracted using an RNeasy® fibrous tissue mini kit from QIAGEN. RNA was then reverse transcribed to cDNA using the high-capacity cDNA reverse transcription kit from applied biosystems. Real-time PCR for Ppargc1, Pck1, G6Pc, and GAPDH was then performed using Taqman assay on demand probes and primers from Applied Biosystems in a CFX96 real-time system from BIO-RAD. The relative expression of genes of interest was then determined by normalization to the housekeeping gene GAPDH using the comparative CT method for relative gene expression^30.
Chemokines and cytokines were quantified in macrophage media, or mouse plasma using the MILLIPLEX™ MAP mouse cytokine/chemokine kit (Millipore Corporation, MA, USA). Nitrite accumulation in media was determined by Greiss assay as previously described^25. Plasma insulin levels were assessed by RIA (Linco, MI, USA). FFA were measured using an enzymatic colorimetric assay (Wako Chemicals, VA, USA). Skeletal muscle and liver IL-6 were quantified using the mouse IL-6 ELISA kit from R&D systems. Total plasma adiponectin was determined using the ELISA from ALPCO.

| Structure (SMILES) | release of IL-6 (T37i brown adipocytes) | IL-6 release from muscle cells (C2C12 myotubes) |
| --- | --- | --- |
| NC[C@H](O)c1ccc(O)c(O)c1 [norepinephrine, reference compound] | released IL-6 | – |
| CCCCCC(O)/C=C/C=C\C=C\[C@@H](O)C/C=C\CCCC(=O)O (stereo partly drawn) [8(S),17(S)DiHETE, 8S,15S-dihydroxy-5Z,9E,11Z,13E-eicosatetraenoic acid, reference compound] | – | not present |
| CC/C=C\C[C@H](O)\C=C/C=C/C=C/[C@H](O)C/C=C\C/C=C\CCC(=O)O [PD1, 10R,17S-dihydroxy-docosa-4Z,7Z,11E,13E,15Z,19Z-hexaenoic acid, reference compound] | – | not present |
| CC/C=C\CC(O)/C=C/C=C\C=C\C=C\C(O)[C@@H](O)C/C=C\CCC(=O)O (stereo partly drawn) [RvD1, 7S,8R,17S-trihydroxy-4Z,9E,11E,13Z,15E,19Z-docosahexaenoic acid, reference compound] | – | not present |
